The text below walks through data of publication PMC6192554, “In vitro toxicity and efficacy of verdinexor, an exportin 1 inhibitor, on opportunistic viruses affecting immunocompromised individuals” (PLoS ONE, 2018).

Assay [1] deals with Epstein-Barr virus (EBV) Akata strain. As to the kind of experiment: EBV primary assay, DNA hybridization in induced Akata cells. It is filed as cell-based. The method, then:
(§1) EBV Akata strain was assayed in Akata cells (John Sixbey, LSU) latently infected with EBV (and therefore oncogenic). Cells were maintained in RPMI 1640, (Mediatech) with 10% FBS (Hyclone), L-glutamine, penicillin and gentamicin.
For Primary assay, Akata cells latently infected with EBV were induced to undergo lytic infection by addition of 50μg/ml of a goat anti-human IgG [16] and a dose-range of verdinexor (0.032 to 100 μM) was added for 72hr. Denaturation buffer was added and an aliquot aspirated through an Immobilon nylon membrane (Millipore, Bedford, MA). Dried membranes were equilibrated in DIG Easy Hyb solution (Roche Diagnostics, Indianapolis, IN) at 56°C. Specific DIG-labeled probes for EBV (S1 Table). (Roche Diagnostics). Membranes with EBV DNA were hybridized overnight followed by washes in 0.2× SSC and 0.1× SSC both with 0.1% SDS. Detection of specifically bound DIG probe was performed with anti-DIG antibody (Roche Diagnostics). An image of the photographic film was captured and quantified with QuantityOne software (Bio-Rad), and the EC50 were interpolated.

Assay [2] has the same test system. In words: EBV secondary assay, qPCR of viral DNA in induced Akata cells. The class given is cell-based. Here is the method: as §1
Secondary assay for EBV were performed in Akata cells that were induced to undergo a lytic infection with 50μg/ml of a goat anti-human IgG antibody by methods we reported previously. Experimental compounds were diluted in round bottom 96-well plates to yield concentrations ranging from 0.0032–100μM. Akata cells were added to the plates at a concentration of 4×10^4 cells per well and […]. Assay plates were incubated for seven days at 37°C. For all assays, the replication of the virus was assessed by the quantification of viral DNA. For primer sequences, please see S1 Table. EBV DNA was purified according to manufacturer’s instructions (Wizard SV 96 Genomic DNA Purification System). The purified DNA was then subjected to qPCR that amplified a fragment corresponding to nucleotides 96802–97234 in the EBV genome (AJ507799). Plasmid pMP218 containing a DNA sequences corresponding to nucleotides 14120–14182 (AF148805.2) was used to provide absolute quantification of viral DNA. Compound concentrations sufficient to reduce genome copy number by 50% were calculated from experimental data.

In assay [3] the test system is BK polyomavirus (BKPyV) Gardner strain. In words: BKPyV qPCR genome copy assay in HFF cells. The class given is cell-based. To be noted: Betapolyomavirus hominis. Here is the method:
(§2) John Cunningham polyomavirus (JCPyV) strains MAD-1 and MAD-4 and BK polyomavirus (BKPyV) Gardner strain were obtained from ATCC. COS-7 cells were obtained from ATCC and maintained according to ATCC-supplied protocols.
Primary assays for BKPyV were performed in 384-well plates containing monolayers of HFF cells. Compound dilutions ranging from 0.0032–100μM were prepared in plates containing cells which were subsequently infected at an MOI of 0.001. After a 7d incubation, total DNA was prepared using Extracta and genome copy number was quantified by qPCR using the primers and probe listed in S1 Table [18]. Plasmid pMP526 served as the DNA standard for quantification purposes. Compounds were confirmed in a similar assay in 96-well plates according to established laboratory protocols with the compounds added 1h […] to identify compounds that inhibit early stages of replication including adsorption and entry. Genome copy number was determined by methods described above.
On the technique in general: In qPCR the cycle at which signal appears reflects the starting amount.

Another assay concerns HPV-11. As to the kind of experiment: HPV-11 transient origin-plasmid replication assay in HEK293 cells (qPCR). It is filed as cell-based, human papillomavirus. Here is the method: HPV-11 and -18 were tested in HEK293 cells and primary human keratinocytes (PHK), respectively. PHKs were isolated from neonatal foreskins following circumcision according to IRB-approved protocols at UAB. They were grown in keratinocyte serum-free medium (Life Technologies) with mitomycin C-treated J2 feeder cells (Swiss 3T3 J2 fibroblasts; Elaine Fuchs, Rockefeller University). HEK 293 cells were maintained under standard conditions.
Quantification of virus was determined via transient replication of an HPV-11 replication origin-containing plasmid in HEK293 cells co-transfected with an HPV-11 replicative DNA helicase E1 and origin binding E2 protein [20]. 293 cells were cultured with test compounds added 4hr post-transfection for 2 days. Low molecular weight DNA was isolated, digested with Dpn1 and exonuclease III to eliminate unreplicated DNA. The Dpn1-resistant DNA was then subjected to qPCR analyses amplifying a small portion of the replication origin [20]. In a negative control, the E1 expression vector was omitted or cultures were treated with the inhibitor cidofovir.

Assay [4] has as its system JC polyoma virus MAD-4 strain. In words: microbe, parasite or virus in culture. The note with it: Polyomavirus sp., COS-7, JCPyV, primary screen, COS-7 cells. It is filed as cell-based. Here is the method:
as §2
Cytotoxicity assay was performed in a manner analogous to KSHV above. Evaluation of compounds against JCPyV virus was done in COS7 cells with the plasmid pMP508 to provide a standard curve for quantification.
Viral DNA was quantified (S1 Table) together with the plasmid pMP508 to provide a standard curve for absolute quantification. Secondary assays against JCV were also performed in COS7 cells by methods similar to those for BK virus to identify if verdinexor inhibited adsorption or entry of the virus.

Another assay relates to KSHV strain BCBL-1. In words: KSHV qPCR of viral DNA in PMA-induced BCBL-1 cells. The class given is cell-based, Kaposi's sarcoma-associated herpesvirus. To be noted: Human gammaherpesvirus 8, BCBL1, KSHV. Here is the method:
KSHV strain BCBL-1 was obtained as latently infected BCBL-1 cells through the NIH AIDS Research and Reference Reagent Program. BCBL-1 cells were maintained in growth medium consisting of RPMI 1640 supplemented with 10% FBS, penicillin, gentamicin, and l-glutamine.
To quantify virus, compound was diluted from 0.008–100μM and added to BCBL-1 cells induced to undergo a lytic infection by the addition of 100ng/ml phorbol 12-myristate 13-acetate (PMA) (Promega). After 7d, total DNA was prepared, and viral DNA was quantified by qPCR (see S1 Table for primer/probe sequences). Plasmid pMP218 containing a DNA sequence corresponding to nucleotides 14120–14182 (AF148805.2) was used to provide absolute quantification of viral DNA and EC50 [11].

A further assay relates to Human CMV strain AD169. In words: HCMV yield reduction assay in HFF cells. The class given is cell-based, human cytomegalovirus. The note with it: Human betaherpesvirus 5, AD169, HFF. The method, then:
Human CMV strain AD169 was obtained from ATCC and assayed in human foreskin fibroblast cells (HFF). HFF cells were prepared at the University of Alabama at Birmingham (UAB) tissue procurement facility with IRB approval as previously described. Yield reduction assays for HCMV were performed on monolayers of HFF cells prepared in 96-well plates and incubated at 37°C for 1d to allow the cells to reach confluency. Media was then aspirated from the wells were infected at a high multiplicity of infection (MOI). At 1h following infection, the inocula were removed and the monolayers rinsed with fresh media. Compounds were then diluted in assay media consisting of MEM with Earl’s salts supplemented with 2% FBS, L-glutamine, penicillin, and gentamycin. Solutions ranging from 0.0032–10μM in primary assay and 0.032–100μM in secondary assay were added to the wells and the plates were incubated for various times, depending on the virus used and represents the length of a single replication cycle for the virus. A duplicate set of dilutions were also performed but remained uninfected to serve as a cytotoxicity control and received equal compound exposure. Supernatants from each of the infected wells were subsequently titered in a TCID50 assay to quantify the progeny virus.

Setting [5] is: human gammaherpesvirus 4, Akata.

As a reminder, the EC50 is the concentration that produces a half-maximal response. The low end stands for greater potency, the high end for weaker potency.

Bounds are passed on as bounds.

For the molecule `Nc1nc2c(ncn2COCCO)c(=O)[nH]1` [acyclovir, reference compound], the “SI (Selectivity Index, CC50/EC50)” value in assay [1] (EBV, primary screen, DNA hybridization) was over 7; in assay [2] (EBV, secondary screen, qPCR), over 13. For the same molecule, the figures for the EC50 in assay [1] (setting [5]) and in assay [2] (setting [5]) were 15 µM and 7.9 µM, respectively.

For `Nc1ccn(C[C@@H](CO)OCP(=O)(O)O)c(=O)n1` [cidofovir, reference compound], the EC50 was 4.48 µM in assay [3] (primary screen); 2.06 µM in assay [3] (secondary screen, compound added 1h post-infection); 148 µM with HPV-11 (Human papillomavirus, HPV-11, primary screen); 3.86 µM in assay [4]; under 0.48 µM in the assay on KSHV strain BCBL-1 (primary screen); 1.68 µM in the assay on KSHV strain BCBL-1 (secondary screen). Besides, the “efficacy against HPV-11” value with HPV-11 (primary screen, qPCR) is “did not show efficacy”.

In the case of `Nc1nc(O)c2ncn(COC(CO)CO)c2n1` [ganciclovir, reference compound], the EC50 came to 0.51 µM in the assay with Human CMV strain AD169 (primary screen) and 4 µM in the assay with Human CMV strain AD169 (secondary screen).
